Test results published in patent US12599136B2, “Substituted isophthalic acid diamides and their use as herbicides” (Bayer Aktiengesellschaft, priority 2020, dated 2026).

Assays:
Assay type in all cases: in vivo
Abutilon theophrasti [1] = test: Pre-emergence herbicidal action against ABUTH; conditions: visual score after 3 weeks vs untreated controls
Source text: (§1) Seeds of monocotyledonous and dicotyledonous weed plants and crop plants are laid out in sandy loam soil in wood-fiber pots and covered with soil. The compounds of the invention, formulated in the form of wettable powders (WP) or as emulsion concentrates (EC), are then applied to the surface of the covering soil in the form of an aqueous suspension or emulsion at a water application rate equivalent to 600 to 800 l/ha, with addition of 0.2% wetting agent. After the treatment, the pots are placed in a greenhouse and kept under good growth conditions for the trial plants. The damage to the test plants is scored visually after a test period of 3 weeks by comparison with untreated controls (herbicidal activity in percent (%): 100% activity=the plants have died, 0% activity=like control plants). […] The tables below illustrate, in an illustrative manner, the post-emergence herbicidal action of the compounds of the invention, the herbicidal activity being stated in percent.

Alopecurus myosuroides [2] = test: Pre-emergence herbicidal action against ALOMY; conditions: 80 g/ha; visual score after 3 weeks vs untreated controls
Source text: as §1

Amaranthus retroflexus [3] = test: Pre-emergence herbicidal action against AMARE; conditions: visual score after 3 weeks vs untreated controls
Source text: as §1

Echinochloa crus-galli [4] = test: Pre-emergence herbicidal action against ECHCG; conditions: visual score after 3 weeks vs untreated controls
Source text: as §1

Matricaria inodora [5] = test: Pre-emergence herbicidal action against MATIN; conditions: visual score after 3 weeks vs untreated controls
Source text: as §1

Digitaria sanguinalis = test: Pre-emergence herbicidal action against DIGSA
Source text: as §1

Setaria viridis [6] = test: Pre-emergence herbicidal action against SETVI
Source text: as §1

Veronica persica [7] = test: Pre-emergence herbicidal action against VERPE
Source text: as §1

Viola tricolor [8] = test: Pre-emergence herbicidal action against VIOTR
Source text: as §1

Alopecurus myosuroides [9] = test: Post-emergence herbicidal action against ALOMY
Protocol: (§2) Seeds of monocotyledonous and dicotyledonous weed and crop plants are laid out in sandy loam soil in wood-fiber pots, covered with soil and cultivated in a greenhouse under good growth conditions. 2 to 3 weeks after sowing, the test plants are treated at the one-leaf stage. The compounds of the invention, formulated in the form of wettable powders (WP) or as emulsion concentrates (EC), are then sprayed onto the green parts of the plants in the form of an aqueous suspension or emulsion at a water application rate equivalent to 600 to 800 l/ha, with addition of 0.2% wetting agent. After the test plants have been left to stand in the greenhouse under optimal growth conditions for about 3 weeks, the action of the preparations is assessed visually in comparison to untreated controls (herbicidal action in percent (%): 100% activity=the plants have died, 0% activity=like control plants). […] The tables below illustrate, in an illustrative manner, the post-emergence herbicidal action of the compounds of the invention, the herbicidal activity being stated in percent.

Echinochloa crus-galli [10] = test: Post-emergence herbicidal action against ECHCG; conditions: visual assessment about 3 weeks after treatment
Protocol: as §2

Matricaria inodora [11] = test: Post-emergence herbicidal action against MATIN; conditions: visual assessment about 3 weeks after treatment
Protocol: as §2

Setaria viridis [12] = test: Post-emergence herbicidal action against SETVI; conditions: visual assessment about 3 weeks after treatment
Protocol: as §2

Veronica persica [13] = test: Post-emergence herbicidal action against VERPE; conditions: visual assessment about 3 weeks after treatment
Protocol: as §2

Avena fatua = test: Pre-emergence herbicidal action against AVEFA; conditions: 80 g/ha; visual score after 3 weeks vs untreated controls
Source text: as §1

Polygonum convolvulus = test: Pre-emergence herbicidal action against POLCO; conditions: 80 g/ha
Source text: as §1

Abutilon theophrasti [14] = test: Post-emergence herbicidal action against ABUTH
Protocol: as §2

Amaranthus retroflexus [15] = test: Post-emergence herbicidal action against AMARE; conditions: visual assessment about 3 weeks after treatment
Protocol: as §2

Pharbitis purpurea = test: Post-emergence herbicidal action against PHBPU; conditions: visual assessment about 3 weeks after treatment
Protocol: as §2

Viola tricolor [16] = test: Post-emergence herbicidal action against VIOTR
Protocol: as §2

Cyperus esculentus = test: Pre-emergence herbicidal action against CYPES; conditions: visual score after 3 weeks vs untreated controls
Source text: as §1

Stellaria media [17] = test: Pre-emergence herbicidal action against STEME; conditions: 320 g/ha
Source text: as §1

Stellaria media [18] = test: Post-emergence herbicidal action against STEME; conditions: 80 g/ha, visual assessment about 3 weeks after treatment
Protocol: as §2

SMILES	Pre-emergence action against ABUTH (Abutilon theophrasti [1]; 80 g/ha)	Pre-emergence action against ALOMY (Alopecurus myosuroides [2])	Pre-emergence action against AMARE (Amaranthus retroflexus [3]; 20 g/ha)	Pre-emergence action against AMARE (Amaranthus retroflexus [3]; 80 g/ha)	Pre-emergence action against ECHCG (Echinochloa crus-galli [4]; 80 g/ha)	Pre-emergence action against MATIN (Matricaria inodora [5]; 20 g/ha)	Pre-emergence action against MATIN (Matricaria inodora [5]; 80 g/ha)	Pre-emergence action against VERPE (Veronica persica [7]; 80 g/ha)	Pre-emergence action against VIOTR (Viola tricolor [8]; 80 g/ha)	Post-emergence action against ALOMY (Alopecurus myosuroides [9]; 20 g/ha)	Post-emergence action against ECHCG in % (Echinochloa crus-galli [10]; 20 g/ha)	Post-emergence action against MATIN in % (Matricaria inodora [11]; 20 g/ha)	Post-emergence action against SETVI in % (Setaria viridis [12]; 20 g/ha)	Post-emergence action against VERPE in % (Veronica persica [13]; 20 g/ha)	Pre-emergence action against POLCO (Polygonum convolvulus)	Post-emergence action against ABUTH (Abutilon theophrasti [14]; 5 g/ha)	Post-emergence action against ABUTH (Abutilon theophrasti [14]; 20 g/ha)	Post-emergence action against AMARE in % (Amaranthus retroflexus [15]; 5 g/ha)	Post-emergence action against AMARE in % (Amaranthus retroflexus [15]; 20 g/ha)	Post-emergence action against VIOTR in % (Viola tricolor [16]; 20 g/ha)	other results
Cc1c(C(=O)Nc2nnnn2C)ccc(C(F)(F)F)c1C(=O)N(C)C1CC1 [Example 1-21]	100%	90%	100%	100%	90%	80%	100%	80%	100%	80%	90%	80%	90%	80%							Pre-emergence action against DIGSA (Digitaria sanguinalis; 20 g/ha): 100%; Pre-emergence action against DIGSA (Digitaria sanguinalis; 80 g/ha): 100%; Pre-emergence action against SETVI (Setaria viridis [6]; 80 g/ha): 100%; Pre-emergence action against VIOTR (Viola tricolor [8]; 20 g/ha): 90%
CN(C(=O)c1c(C(F)F)ccc(C(=O)Nc2nnnn2C)c1Cl)C1CC1 [Example 1-156]	100%	100%	100%	100%	90%	90%	100%	90%	100%	90%	90%	90%	90%	80%	80%	90%	90%	100%	100%	90%	Pre-emergence action against ABUTH (Abutilon theophrasti [1]; 20 g/ha): 100%; Pre-emergence action against AVEFA (Avena fatua): 80%; Pre-emergence action against SETVI (Setaria viridis [6]; 80 g/ha): 100%; Post-emergence action against ALOMY (Alopecurus myosuroides [9]; 5 g/ha): 80%; Post-emergence action against ECHCG in % (Echinochloa crus-galli [10]; 5 g/ha): 90%; Post-emergence action against MATIN in % (Matricaria inodora [11]; 5 g/ha): 80%; Post-emergence action against PHBPU in % (Pharbitis purpurea; 5 g/ha): 80%; Post-emergence action against PHBPU in % (Pharbitis purpurea; 20 g/ha): 90%; Post-emergence action against SETVI in % (Setaria viridis [12]; 5 g/ha): 90%; Post-emergence action against VERPE in % (Veronica persica [13]; 5 g/ha): 80%; Post-emergence action against VIOTR in % (Viola tricolor [16]; 5 g/ha): 90%
Cc1c(C(=O)Nc2nnnn2C)ccc(S(C)(=O)=O)c1C(=O)N(C)C [Example 1-395]	90%			100%				100%	80%		100%										Pre-emergence action against ABUTH (Abutilon theophrasti [1]; Dosage column 320 g/ha (heading prints 3200 g/ha)): 100%; Pre-emergence action against AMARE (Amaranthus retroflexus [3]; 320 g/ha): 100%; Pre-emergence action against CYPES (Cyperus esculentus; 80 g/ha): 100%; Pre-emergence action against CYPES (Cyperus esculentus; 320 g/ha): 100%; Pre-emergence action against ECHCG (Echinochloa crus-galli [4]; 320 g/ha): 100%; Pre-emergence action against MATIN (Matricaria inodora [5]; 320 g/ha): 100%; Pre-emergence action against SETVI (Setaria viridis [6]; 320 g/ha): 100%; Pre-emergence action against STEME (Stellaria media [17]): 100%; Pre-emergence action against VERPE (Veronica persica [7]; 20 g/ha): 90%; Pre-emergence action against VERPE (Veronica persica [7]; 320 g/ha): 100%; Pre-emergence action against VIOTR (Viola tricolor [8]; 320 g/ha): 100%; Post-emergence action against ABUTH (Abutilon theophrasti [14]; 80 g/ha): 100%; Post-emergence action against AMARE in % (Amaranthus retroflexus [15]; 80 g/ha): 80%; Post-emergence action against ECHCG in % (Echinochloa crus-galli [10]; 80 g/ha): 100%; Post-emergence action against SETVI in % (Setaria viridis [12]; 80 g/ha): 90%; Post-emergence action against STEME in % (Stellaria media [18]): 100%; Post-emergence action against VIOTR in % (Viola tricolor [16]; 80 g/ha): 90%
CCn1nnnc1NC(=O)c1ccc(C(F)F)c(C(=O)N(C)C)c1C [Example 2-50]	100%	90%	90%	100%	80%	90%	90%	80%		80%	90%		80%	90%	90%	90%	90%	100%	100%	90%	Post-emergence action against ECHCG in % (Echinochloa crus-galli [10]; 5 g/ha): 80%
CCN(C)C(=O)c1c(C(F)F)ccc(C(=O)Nc2nnnn2CC)c1C [Example 2-51]	100%	100%	90%	90%		90%	100%		80%	90%	90%	80%	90%	90%	90%	90%	90%	90%	100%	90%	Pre-emergence action against ABUTH (Abutilon theophrasti [1]; 20 g/ha): 100%; Pre-emergence action against AVEFA (Avena fatua): 80%; Post-emergence action against ALOMY (Alopecurus myosuroides [9]; 5 g/ha): 80%; Post-emergence action against SETVI in % (Setaria viridis [12]; 5 g/ha): 80%; Post-emergence action against VIOTR in % (Viola tricolor [16]; 5 g/ha): 90%
